Data: US10889555B2, “Sulfonamide compound or salt thereof” (Taiho Pharmaceutical Co., Ltd., priority 2016, dated 2021)

What follows are compounds tested on HCC 1806 cells (assay: Cell proliferation inhibitory effect on human breast cancer cell line (crystal violet, 72 hours)). Settings: Homo sapiens, HCC1806, 72 h, read-out: Cell growth suppression IC50.
Format: cell-based
Description: Human derived breast cancer cell line HCC 1806 cells were daily passaged at a cell density not exceeding 80% in ATCC recommended Roswell Park Memorial Institute medium (RPMI-1640) containing 10% fetal bovine serum (FBS). In order to start the test of cell proliferation inhibitory activity, HCC 1806 cells were suspended in the above medium, after seeing at 180 μL in each well of a 96-well flat bottom plate so that the number of cells per well was 2,000, the cells were cultured at 37° C. for 1 day in an incubator containing 5% carbon dioxide gas. On the next day, the test compound was dissolved in DMSO, and 20 μL of a drug additive solution diluted serially with distilled water to 10 times of the final concentration was added to each well of the culture plate of the cells, and the cells were cultured at 37° C. for 72 hours in an incubator containing 5% carbon dioxide gas. After culturing for 72 hours, 20 μL of glutaraldehyde was added to each well and allowed to stand for 30 minutes, then the plate was washed 10 times with water and was dried. 100 μL of a stain solution (0.05% crystal violet in a 20% methanol solution) was added to each well and allowed to stand for 30 minutes, then the plate was washed 10 times with water and was dried. 100 μL of an extract solution (0.1 N NaH2PO4: 100% ethanol=1:1) was added to each well and mixed, and the mixture was measured at a wavelength of 540 nm using a plate reader (MTP-450 manufactured by Corona Electric Co., Ltd.). The growth inhibition rate was calculated from the following formula, and the concentration (IC50 (μM)) of a test compound inhibiting 50% was determined. Growth inhibition rate (%)={(C−B)−(T−B)}/(C−B)×100
T: Absorbance of well to which test compound was added
C: Absorbance of wells to which no test compound was added
B: Absorbance of wells to which no cell suspension was added

IC50 [nM] | SMILES
590 | Cc1ccc(F)c([C@@H](C)[C@H](NS(=O)(=O)c2cnc(Cl)cc2C(N)=O)c2n[nH]c(=O)o2)c1C [Example 40, 2-chloro-5-(N-((1S,2R)-2-(6-fluoro-2,3-dimethylphenyl)-1-(5-oxo-4,5-dihydro-1,3,4-oxadiazol-2-yl)propyl)sulfamoyl)isonicotinamide]
960 | COc1c(S(=O)(=O)N[C@H](c2n[nH]c(=O)o2)[C@H](C)c2c(F)ccc(C)c2C)ccc(Cl)c1C(C)OC(C)=O (stereo partly drawn) [Example 144, 1-(6-chloro-3-(N-((1S,2R)-2-(6-fluoro-2,3-dimethylphenyl)-1-(5-oxo-4,5-dihydro-1,3,4-oxadiazol-2-yl)propyl)sulfamoyl)-2-methoxyphenyl)ethyl acetate]
140 | Cc1c(Cl)ccc(F)c1[C@@H](C)[C@H](NS(=O)(=O)c1ncc(Cl)cc1C(N)=O)c1n[nH]c(=O)o1 [Example 249, 5-chloro-2-(N-((1S,2R)-2-(3-chloro-6-fluoro-2-methylphenyl)-1-(5-oxo-4,5-dihydro-1,3,4-oxadiazol-2-yl)propyl)sulfamoyl)nicotinamide]
400 | COC(=O)c1nc(S(=O)(=O)N[C@H](c2n[nH]c(=O)o2)[C@H](C)c2c(F)ccc(C)c2C)ccc1Cl [Example 109, methyl 3-chloro-6-(N-((1S,2R)-2-(6-fluoro-2,3-dimethylphenyl)-1-(5-oxo-4,5-dihydro-1,3,4-oxadiazol-2-yl)propyl)sulfamoyl)picolinate]
670 | COc1c(S(=O)(=O)N[C@H](c2n[nH]c(=O)o2)[C@H](C)c2c(F)ccc(C)c2C)ncc(Cl)c1C(C)O (stereo partly drawn) [Example 216, 5-chloro-N-((1S,2R)-2-(6-fluoro-2,3-dimethylphenyl)-1-(5-oxo-4,5-dihydro-1,3,4-oxadiazol-2-yl)propyl)-4-(1-hydroxyethyl)-3-methoxypyridine-2-sulfonamide]
230 | Cc1ccc(F)c([C@@H](C)[C@H](NS(=O)(=O)c2cc(C(=O)N(C)C)c(Cl)cc2C(N)=O)c2n[nH]c(=O)o2)c1C [Example 39, 2-chloro-5-(N-((1S,2R)-2-(6-fluoro-2,3-dimethylphenyl)-1-(5-oxo-4,5-dihydro-1,3,4-oxadiazol-2-yl)propyl)sulfamoyl)-N1,N1-dimethyl terephthalamide]
560 | Cc1ccc(S(=O)(=O)N[C@H](c2n[nH]c(=O)o2)[C@H](C)c2c(F)ccc(C)c2C)c(C(N)=O)c1 [Example 10, 2-(N-((1S,2R)-2-(3-6-fluoro-2,3-dimethylphenyl)-1-(5-oxo-4,5-dihydro-1,3,4-oxadiazol-2-yl)propyl)sulfamoyl)-5-methylbenzamide]
870 | Cc1ccc(F)c([C@@H](C)[C@H](NS(=O)(=O)c2ccc(Cl)c(C(=O)N3CCC4(CC3)COC4)n2)c2n[nH]c(=O)o2)c1C [Example 156, 5-chloro-N-((1S,2R)-2-(6-fluoro-2,3-dimethylphenyl)-1-(5-oxo-4,5-dihydro-1,3,4-oxadiazol-2-yl)propyl)-6-(2-oxa-7-azaspiro[3.5]nonane-7-carbonyl)pyridine-2-sulfonamide]
200 | Cc1cc(S(=O)(=O)N[C@H](c2n[nH]c(=O)o2)[C@H](C)c2c(F)ccc(C)c2C)c(C(N)=O)cc1Cl [Example 257, 5-chloro-2-(N-((1S,2R)-2-(6-fluoro-2,3-dimethylphenyl)-1-(5-oxo-4,5-dihydro-1,3,4-oxadiazol-2-yl)propyl)sulfamoyl)-4-methylbenzamide]
600 | Cc1c(Cl)ccc(F)c1[C@@H](C)[C@H](NS(=O)(=O)c1ccc(Cl)c2c1OCCN2C)c1n[nH]c(=O)o1 [Example 289, 5-chloro-N-((1S,2R)-2-(3-chloro-6-fluoro-2-methylphenyl)-1-(5-oxo-4,5-dihydro-1,3,4-oxadiazol-2-yl)propyl)-4-methyl-3,4-dihydro-2H-benzo[b][1,4]oxazine-8-sulfonamide]
740 | CNC(=O)c1nc(S(=O)(=O)N[C@H](c2n[nH]c(=O)o2)[C@H](C)c2c(F)ccc(C)c2C)ccc1Cl [Example 252, 3-chloro-6-(N-((1S,2R)-2-(6-fluoro-2,3-dimethylphenyl)-1-(5-oxo-4,5-dihydro-1,3,4-oxadiazol-2-yl)propyl)sulfamoyl)-N-methylpicolinamide]
800 | Cc1c(Br)ccc(F)c1[C@@H](C)[C@H](NS(=O)(=O)c1ccc(Cl)cc1C(N)=O)c1n[nH]c(=O)o1 [Example 30, 2-(N-((1S,2R)-2-(3-bromo-6-fluoro-2-methylphenyl)-1-(5-oxo-4,5-dihydro-1,3,4-oxadiazol-2-yl)propyl)sulfamoyl)-5-chlorobenzamide]
260 | COc1c(S(=O)(=O)N[C@H](c2n[nH]c(=O)o2)[C@H](C)c2c(F)ccc(C)c2C)ccc(Cl)c1C(C)(C)O [Example 212, 4-chloro-N-((1S,2R)-2-(6-fluoro-2,3-dimethylphenyl)-1-(5-oxo-4,5-dihydro-1,3,4-oxadiazol-2-yl)propyl)-3-(2-hydroxypropan-2-yl)-2-methoxybenzenesulfonamide]
570 | C[C@H](c1c(F)ccc2ccccc12)[C@H](NS(=O)(=O)c1ccc(Cl)c2c1OCCC2O)c1n[nH]c(=O)o1 (single isomer, unassigned) [Example 234A]
950 | CCc1ccc(F)c([C@@H](C)[C@H](NS(=O)(=O)c2ccc(Br)cc2C(N)=O)c2n[nH]c(=O)o2)c1C [Example 96, 5-bromo-2-(N-((1S,2R)-2-(3-ethyl-6-fluoro-2-methylphenyl)-1-(5-oxo-4,5-dihydro-1,3,4-oxadiazol-2-yl)propyl)sulfamoyl)benzamide]
520 | COc1cc(Cl)ccc1S(=O)(=O)N[C@H](c1n[nH]c(=O)o1)[C@H](C)c1c(F)ccc(-c2cnn(C3CC3)c2)c1C [Example 311, 4-chloro-N-((1S,2R)-2-(3-(1-cyclopropyl-1H-pyrazol-4-yl)-6-fluoro-2-methylphenyl)-1-(5-oxo-4,5-dihydro-1,3,4-oxadiazol-2-yl)propyl)-2-methoxybenzenesulfonamide]
190 | Cc1c(Br)ccc(F)c1[C@@H](C)[C@H](NS(=O)(=O)c1ccc(F)c2c1OCCC2(C)O)c1n[nH]c(=O)o1 (single isomer, unassigned) [Example 227A]
820 | Cc1ccc(F)c([C@@H](C)[C@H](NS(=O)(=O)c2cc(C(=O)N(C)C)ccc2C(N)=O)c2n[nH]c(=O)o2)c1C [Example 37, 3-(N-((1S,2R)-2-(6-fluoro-2,3-dimethylphenyl)-1-(5-oxo-4,5-dihydro-1,3,4-oxadiazol-2-yl)propyl)sulfamoyl)-N1,N1-dimethylterephthalamide]

Same assay, conditions: read-out: Cell growth suppression IC50

IC50 [nM] | SMILES
70 | Cc1ccc(F)c([C@@H](C)[C@H](NS(=O)(=O)c2ccc(Cl)c3c2OCCC3(C)O)c2n[nH]c(=O)o2)c1C (single isomer, unassigned) [Example 207A]
700 | Cc1c(Br)ccc(F)c1[C@@H](C)[C@H](NS(=O)(=O)c1ccc(Cl)c2c1OCCC2O)c1n[nH]c(=O)o1 (single isomer, unassigned) [Example 243B]
500 | Cc1ccc(F)c([C@@H](C)[C@H](NS(=O)(=O)c2ccc(Cl)c3c2OCCC3(O)C(F)(F)F)c2n[nH]c(=O)o2)c1C (single isomer, unassigned) [Example 220B]

SMILES | IC50 [nM]
Cc1c(Br)ccc(F)c1[C@@H](C)[C@H](NS(=O)(=O)c1ccc(Cl)c2c1OCCC2(C)O)c1n[nH]c(=O)o1 (single isomer, unassigned) [Example 222B] | 670
